Tests used:
TRβ = biological target: T1, TRβ (Homo sapiens, UniProt P10828); experiment: TR reporter-gene assay (Gal4 DBD hybrid, luciferase), TRβ; assay type: cell-based; details: for EC50: HEK293-derived reporter cells, 24 hr treatment, read-out: TRβ EC50; for T3-SI (selectivity index, EC50 (TRα)/EC50 (TRβ)): class symbols
T1 construct: expressed in transfected cells; host or cells: HEK293
T1 sequence (P10828 217-461 limits assumed): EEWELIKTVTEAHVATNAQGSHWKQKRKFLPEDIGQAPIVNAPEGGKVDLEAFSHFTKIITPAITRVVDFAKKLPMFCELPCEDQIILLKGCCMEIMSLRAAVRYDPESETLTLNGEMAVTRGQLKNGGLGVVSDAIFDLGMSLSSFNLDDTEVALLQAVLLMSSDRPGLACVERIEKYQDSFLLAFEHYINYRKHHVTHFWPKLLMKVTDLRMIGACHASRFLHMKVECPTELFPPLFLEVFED
Experimental: (§1) Compounds were tested for thyroid-hormone receptor activity using TR reporter-gene assays. Reporter cells used in the assays express a TR-receptor hybrid (either TRα or TRβ) in which the native N-terminal DNA binding domain (DBD) has been replaced with that of the yeast Gal4 DBD. The reporter gene, firefly luciferase, is functionally linked to the Gal4 upstream activation sequence (UAS). Both cell lines were derived from human embryonic kidney (HEK293).
(§2) Step 1: A suspension of reporter cells was prepared in cell recovery medium containing 10% charcoal-stripped FBS, and dispensed into assay plates. The plates were pre-incubated for 6 hours in a cell culture incubator (37° C./5% CO2/85% humidity).
(§3) These intermediate stocks were subsequently diluted directly into compound screening medium containing 10% charcoal-stripped FBS to generate “2×-concentration” treatment media (containing 0.2, 0.4 or 0.8% DMSO).
(§4) Step 3: At the end of the pre-incubation period, culture media were discarded from the assay plates, and all wells received 100 μl of compound screening medium. 100 μl of each of the previously prepared “2×-concentration” treatment media were dispensed into duplicate assay wells, thereby achieving the desired final treatment concentrations. The final concentration of DMSO in all assay wells was 0.1, 0.2 or 0.4%. Assay plates were incubated for 24 hr in a cell culture incubator (37° C./5% CO2/85% humidity).
(§5) Step 4: At the 24 h assay endpoint, treatment media were discarded and 100 µl/well of luciferase detection reagent was added. Relative luminometer units (RLUs) were quantified from each assay well.

TRα = biological target: T2, TRα (Homo sapiens, UniProt P10827); experiment: TR reporter-gene assay (Gal4 DBD hybrid, luciferase), TRα; assay type: cell-based; details: HEK293-derived reporter cells, 24 hr treatment; read-out: TRα EC50
T2 construct: expressed in transfected cells; host or cells: HEK293
T2 sequence (P10827 1-410 isoform P10827-2): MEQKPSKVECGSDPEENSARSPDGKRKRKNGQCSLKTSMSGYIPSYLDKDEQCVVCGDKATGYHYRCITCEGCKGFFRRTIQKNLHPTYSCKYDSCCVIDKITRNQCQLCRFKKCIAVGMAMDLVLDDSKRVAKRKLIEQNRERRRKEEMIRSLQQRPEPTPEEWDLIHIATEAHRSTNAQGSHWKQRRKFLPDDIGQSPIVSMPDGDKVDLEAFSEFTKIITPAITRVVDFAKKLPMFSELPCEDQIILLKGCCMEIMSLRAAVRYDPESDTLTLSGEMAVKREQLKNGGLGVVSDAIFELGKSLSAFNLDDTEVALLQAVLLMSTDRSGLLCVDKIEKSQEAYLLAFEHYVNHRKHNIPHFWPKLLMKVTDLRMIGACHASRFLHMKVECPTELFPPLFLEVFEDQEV
Experimental: as §1, §2, §3, §4, §5

**Q.** What does the source list for CC(C)c1cc(Cc2c(Cl)cc(C[S+]([O-])CC(=O)O)cc2Cl)ccc1O (stereo not shown) [Compound 96, 2-((3,5-dichloro-4-(4-hydroxy-3-isopropylbenzyl)benzyl)sulfinyl)acetic acid]?
**A.** EC50 (TRβ): > 1000 nM; T3-SI (selectivity index, EC50 (TRα)/EC50 (TRβ)) (TRβ): + (T3-SI ≤ 3×); EC50 (TRα): > 1000 nM

**Q.** How did the EC50 (TRβ) turn out when CC(C)c1cc(Cc2c(Cl)cc(NCC(=O)O)cc2Cl)ccc1O [Compound 20, (3,5-dichloro-4-(4-hydroxy-3-isopropylbenzyl)phenyl)glycine] was run?
**A.** 10 to 100 nM

**Q.** What about the “T3-SI (selectivity index, EC50 (TRα)/EC50 (TRβ))” value (TRβ) of the same compound?
**A.** ++ (3× < T3-SI ≤ 30×)

**Q.** And the EC50 (TRα)?
**A.** 10 to 100 nM

**Q.** Which results are given for CC(C)c1c(O)ccc(Cc2c(Cl)cc(CC3NC(=O)NC3=O)cc2Cl)c1F (stereo not shown) [Compound 206, 5-(3,5-dichloro-4-(2-fluoro-4-hydroxy-3-isopropylbenzyl)benzyl)imidazolidine-2,4-dione]?
**A.** EC50 (TRβ): > 1000 nM; T3-SI (selectivity index, EC50 (TRα)/EC50 (TRβ)) (TRβ): +++ (T3-SI > 30×); EC50 (TRα): > 1000 nM

**Q.** With CC(C)c1c(O)ccc(Cc2c(Cl)cc(CC(N)C(=O)O)cc2Cl)c1F (stereo not shown) [Compound 207, 2-amino-3-(3,5-dichloro-4-(2-fluoro-4-hydroxy-3-isopropylbenzyl)phenyl)propanoic acid] as the compound, how does the EC50 (TRβ) read?
**A.** 100 to 1000 nM

**Q.** What about the “T3-SI (selectivity index, EC50 (TRα)/EC50 (TRβ))” value (TRβ) of the same compound?
**A.** + (T3-SI ≤ 3×)

**Q.** And the EC50 (TRα)?
**A.** > 1000 nM

**Q.** CC(C)c1cc(Cc2c(Cl)cc(CNCC(=O)O)cc2Cl)ccc1O [Compound 30, (3,5-dichloro-4-(4-hydroxy-3-isopropylbenzyl)benzyl)glycine] was tested. Which EC50 (TRβ) did it give?
**A.** 100 to 1000 nM

**Q.** And the “T3-SI (selectivity index, EC50 (TRα)/EC50 (TRβ))” value (TRβ)?
**A.** + (T3-SI ≤ 3×)

**Q.** What about the EC50 (TRα) of the same compound?
**A.** 100 to 1000 nM

**Q.** For CC(C)c1cc(Cc2c(Cl)cc(C=C(C(=O)O)C(=O)O)cc2Cl)ccc1O [Compound 108, 2-(3,5-dichloro-4-(4-hydroxy-3-isopropylbenzyl)benzylidene)malonic acid], which EC50 (TRβ) is on record?
**A.** > 1000 nM

**Q.** What about the “T3-SI (selectivity index, EC50 (TRα)/EC50 (TRβ))” value (TRβ) of the same compound?
**A.** + (T3-SI ≤ 3×)

**Q.** What about the EC50 (TRα) of the same compound?
**A.** 100 to 1000 nM

**Q.** What does the source list for Cc1cc(CSCC(=O)O)cc(Cl)c1Cc1ccc(O)c(C(C)C)c1 [Compound 124, 2-((3-chloro-4-(4-hydroxy-3-isopropylbenzyl)-5-methylbenzyl)thio)acetic acid]?
**A.** EC50 (TRβ): 10 to 100 nM; T3-SI (selectivity index, EC50 (TRα)/EC50 (TRβ)) (TRβ): ++ (3× < T3-SI ≤ 30×); EC50 (TRα): 10 to 100 nM

**Q.** With CC(C)c1c(O)ccc(Cc2c(Cl)cc(C(C)C(=O)O)cc2Cl)c1F (stereo not shown) [Compound 60, 2-(3,5-dichloro-4-(2-fluoro-4-hydroxy-3-isopropylbenzyl)phenyl)propanoic acid] as the compound, how does the EC50 (TRβ) read?
**A.** 100 to 1000 nM

**Q.** And the “T3-SI (selectivity index, EC50 (TRα)/EC50 (TRβ))” value (TRβ)?
**A.** ++ (3× < T3-SI ≤ 30×)

**Q.** And the EC50 (TRα)?
**A.** 100 to 1000 nM

**Q.** With CC(C)c1c(O)ccc(Cc2c(Cl)cc(N(C)CC(=O)O)cc2Cl)c1F [Compound 140, N-(3,5-dichloro-4-(2-fluoro-4-hydroxy-3-isopropylbenzyl)phenyl)-N-methylglycine] as the compound, how does the EC50 (TRα) read?
**A.** > 1000 nM

**Q.** Which results are given for Cc1cc(NCC(=O)O)c(F)c(Cl)c1Cc1ccc(O)c(C(C)C)c1 [Compound 222, (3-chloro-2-fluoro-4-(4-hydroxy-3-isopropylbenzyl)-5-methylphenyl)glycine]?
**A.** EC50 (TRβ): 10 to 100 nM; T3-SI (selectivity index, EC50 (TRα)/EC50 (TRβ)) (TRβ): ++ (3× < T3-SI ≤ 30×); EC50 (TRα): 10 to 100 nM

**Q.** With CC(C)c1cc(Cc2c(Cl)cc(COCC(=O)O)cc2Cl)ccc1O [Compound 28, 2-((3,5-dichloro-4-(4-hydroxy-3-isopropylbenzyl)benzyl)oxy)acetic acid] as the compound, how does the EC50 (TRβ) read?
**A.** 10 to 100 nM

**Q.** And the “T3-SI (selectivity index, EC50 (TRα)/EC50 (TRβ))” value (TRβ)?
**A.** ++ (3× < T3-SI ≤ 30×)

**Q.** What about the EC50 (TRα) of the same compound?
**A.** 10 to 100 nM

**Q.** With CC(C)c1cc(Cc2c(Cl)cc(NCC(=O)O)c(F)c2Cl)ccc1O [Compound 75, (3,5-dichloro-2-fluoro-4-(4-hydroxy-3-isopropylbenzyl)phenyl)glycine] as the compound, how does the EC50 (TRβ) read?
**A.** 10 to 100 nM

**Q.** And the “T3-SI (selectivity index, EC50 (TRα)/EC50 (TRβ))” value (TRβ)?
**A.** ++ (3× < T3-SI ≤ 30×)

**Q.** And the EC50 (TRα)?
**A.** 10 to 100 nM

**Q.** What does the source list for CC(C)c1c(O)ccc(Cc2c(Cl)cc(NCC(=O)O)cc2Cl)c1F [Compound 46, (3,5-dichloro-4-(2-fluoro-4-hydroxy-3-isopropylbenzyl)phenyl)glycine]?
**A.** EC50 (TRβ): < 10 nM; T3-SI (selectivity index, EC50 (TRα)/EC50 (TRβ)) (TRβ): ++ (3× < T3-SI ≤ 30×); EC50 (TRα): 10 to 100 nM

**Q.** For Cc1c(F)c(NCC(=O)O)cc(Cl)c1Cc1ccc(O)c(C(C)C)c1 [Compound 223, (5-chloro-2-fluoro-4-(4-hydroxy-3-isopropylbenzyl)-3-methylphenyl)glycine], which EC50 (TRβ) is on record?
**A.** 10 to 100 nM

**Q.** And the “T3-SI (selectivity index, EC50 (TRα)/EC50 (TRβ))” value (TRβ)?
**A.** ++ (3× < T3-SI ≤ 30×)

**Q.** And the EC50 (TRα)?
**A.** 10 to 100 nM

**Q.** Which results are given for CC(C)c1cc(Cc2c(Cl)cc(C[S+]([O-])CC(=O)O)cc2Cl)ccc1O (stereo not shown) [Compound 210, 2-((3,5-dichloro-4-(4-hydroxy-3-isopropylbenzyl)benzyl)sulfinyl)acetic acid]?
**A.** EC50 (TRβ): > 1000 nM; T3-SI (selectivity index, EC50 (TRα)/EC50 (TRβ)) (TRβ): ++ (3× < T3-SI ≤ 30×); EC50 (TRα): > 1000 nM

**Q.** How did the EC50 (TRβ) turn out when C/C(=C\c1cc(Cl)c(Cc2ccc(O)c(C(C)C)c2)c(C)c1F)C(=O)O [Compound 128, (E)-3-(5-chloro-2-fluoro-4-(4-hydroxy-3-isopropylbenzyl)-3-methylphenyl)-2-methylacrylic acid] was run?
**A.** 10 to 100 nM

**Q.** What about the “T3-SI (selectivity index, EC50 (TRα)/EC50 (TRβ))” value (TRβ) of the same compound?
**A.** ++ (3× < T3-SI ≤ 30×)

**Q.** And the EC50 (TRα)?
**A.** 10 to 100 nM

**Q.** Which results are given for CON(C)C(=O)CCc1cc(Cl)c(Cc2ccc(O)c(C(C)C)c2F)c(Cl)c1 [Compound 107, 3-(3,5-dichloro-4-(2-fluoro-4-hydroxy-3-isopropylbenzyl)phenyl)-N-methoxy-N-methylpropanamide]?
**A.** EC50 (TRβ): 100 to 1000 nM; T3-SI (selectivity index, EC50 (TRα)/EC50 (TRβ)) (TRβ): ++ (3× < T3-SI ≤ 30×); EC50 (TRα): 100 to 1000 nM

**Q.** With CC(C)c1cc(Cc2c(Cl)cc(C(CC(=O)O)C(=O)O)cc2Cl)ccc1O (stereo not shown) [Compound 142, 2-(3,5-dichloro-4-(4-hydroxy-3-isopropylbenzyl)phenyl)succinic acid] as the compound, how does the EC50 (TRα) read?
**A.** > 1000 nM

**Q.** With CC(c1ccc(F)cc1)c1c(O)ccc(Cc2c(Cl)cc(NCC(=O)O)cc2Cl)c1F (stereo not shown) [Compound 50, (3,5-dichloro-4-(2-fluoro-3-(1-(4-fluorophenyl)ethyl)-4-hydroxybenzyl)phenyl) glycine] as the compound, how does the EC50 (TRβ) read?
**A.** < 10 nM

**Q.** And the “T3-SI (selectivity index, EC50 (TRα)/EC50 (TRβ))” value (TRβ)?
**A.** ++ (3× < T3-SI ≤ 30×)

**Q.** And the EC50 (TRα)?
**A.** 10 to 100 nM

**Q.** How did the EC50 (TRα) turn out when O=C(O)CNc1cc(Cl)c(Cc2ccc(O)c(-c3cc(OC(F)F)ccc3F)c2F)c(Cl)c1 [Compound 139, (3,5-dichloro-4-((5′-(difluoromethoxy)-2,2′-difluoro-6-hydroxy-[1,1′-biphenyl]-3-yl)methyl)phenyl)glycine] was run?
**A.** 10 to 100 nM

**Q.** CC(=O)NOCc1cc(Cl)c(Cc2ccc(O)c(C(C)C)c2F)c(Cl)c1 [Compound 211, N-((3,5-dichloro-4-(2-fluoro-4-hydroxy-3-isopropylbenzyl)benzyl)oxy)acetamide] was tested. Which EC50 (TRα) did it give?
**A.** 100 to 1000 nM

**Q.** Which EC50 (TRβ) does the source give for O=C(O)Cc1cc(Cl)c(Cc2ccc(O)c(C(=O)N3CCCCC3)c2)c(Cl)c1 [Compound 137, 2-(3,5-dichloro-4-(4-hydroxy-3-(piperidine-1-carbonyl)benzyl)phenyl)acetic acid] here?
**A.** > 1000 nM

**Q.** Which EC50 (TRα) does the source give for O=C(O)Cc1cc(Cl)c(Cc2ccc(O)c(CN3CCCC3=O)c2)c(Cl)c1 [Compound 138, 2-(3,5-dichloro-4-(4-hydroxy-3-((2-oxopyrrolidin-1-yl)methyl)benzyl)phenyl)acetic acid] here?
**A.** > 1000 nM

**Q.** How did the “T3-SI (selectivity index, EC50 (TRα)/EC50 (TRβ))” value (TRβ) turn out when CC(C)c1c(O)ccc(Cc2c(Cl)cc(NC(=O)C(=O)O)cc2Cl)c1F [Compound 63, 2-((3,5-dichloro-4-(2-fluoro-4-hydroxy-3-isopropylbenzyl)phenyl)amino)-2-oxoacetic acid] was run?
**A.** ++ (3× < T3-SI ≤ 30×)

Source: patent US12528761B2, “Thyromimetics” (Autobahn Therapeutics, Inc., priority 2020, dated 2026)
